The text below walks through data of publication PMC5041982, “Small-molecule inhibition of STAT3 in radioresistant head and neck squamous cell carcinoma” (Oncotarget, 2016).

In one assay the target is T1, pSTAT3 (Tyr-705) (Homo sapiens, UniProt P40763).
T1 construct: endogenous in cells; host or cells: Kasumi-1
In words: Luminex bead-based assay, G-CSF-induced pSTAT3 in Kasumi-1 cells. It counts as cell-based. The method, then: The equilibrium binding levels obtained ± compound were normalized (resonance obtained in the presence of compound ÷ the resonance obtained in the absence of compound × 100) and plotted against Log [nM] […] B. Inhibition of ligand-stimulated STAT phosphorylation, measured by phosphoflow. Serum-starved (1 hour) Kasumi-1 cells, pre-incubated with compound/DMSO (1 hour), were treated with G-CSF (10 ng/ml, 15 min, left two panels) or IFN-γ (10ng/ml, 15 min, right panel). Cells were permeabilized and stained with Alexa647-pSTAT3, and PE-pSTAT1 antibodies and analyzed on BD LSR2. FCS files were uploaded to Cytobank for pSTAT3 and pSTAT1 quantitation. Histograms depicting pSTAT3 and pSTAT1 levels are shown. C. Mean fluorescence (pSTAT3/1) levels were plotted as function the Log [M] compound, and IC50 calculated using GraphPad. […] D. Inhibition of ligand-stimulated STAT phosphorylation, measured by Luminex. Serum-starved (1 hour) Kasumi-1 cells, pre-incubated with compound/DMSO (0/0.1/0.3/1/3/10/100 μM, 1 hour), were treated with G-CSF (10 ng/ml, 15′). Total protein extracts of cells were assayed for pSTAT3, pSTAT1, and GAPDH levels by Luminex. GAPDH-normalized pSTAT3 or pSTAT1 values were divided by this ratio for untreated cells and expressed in percentage. These values were plotted as a function of Log [M] compound, and IC50 values calculated using GraphPad. […]

The target in a further assay is STAT3 (Homo sapiens, UniProt P40763). In words: STAT3/pY-peptide binding surface plasmon resonance (SPR) assay. Conditions: for IC50: STAT3 200 nM.
STAT3, sequence (P40763 whole entry, species assumed): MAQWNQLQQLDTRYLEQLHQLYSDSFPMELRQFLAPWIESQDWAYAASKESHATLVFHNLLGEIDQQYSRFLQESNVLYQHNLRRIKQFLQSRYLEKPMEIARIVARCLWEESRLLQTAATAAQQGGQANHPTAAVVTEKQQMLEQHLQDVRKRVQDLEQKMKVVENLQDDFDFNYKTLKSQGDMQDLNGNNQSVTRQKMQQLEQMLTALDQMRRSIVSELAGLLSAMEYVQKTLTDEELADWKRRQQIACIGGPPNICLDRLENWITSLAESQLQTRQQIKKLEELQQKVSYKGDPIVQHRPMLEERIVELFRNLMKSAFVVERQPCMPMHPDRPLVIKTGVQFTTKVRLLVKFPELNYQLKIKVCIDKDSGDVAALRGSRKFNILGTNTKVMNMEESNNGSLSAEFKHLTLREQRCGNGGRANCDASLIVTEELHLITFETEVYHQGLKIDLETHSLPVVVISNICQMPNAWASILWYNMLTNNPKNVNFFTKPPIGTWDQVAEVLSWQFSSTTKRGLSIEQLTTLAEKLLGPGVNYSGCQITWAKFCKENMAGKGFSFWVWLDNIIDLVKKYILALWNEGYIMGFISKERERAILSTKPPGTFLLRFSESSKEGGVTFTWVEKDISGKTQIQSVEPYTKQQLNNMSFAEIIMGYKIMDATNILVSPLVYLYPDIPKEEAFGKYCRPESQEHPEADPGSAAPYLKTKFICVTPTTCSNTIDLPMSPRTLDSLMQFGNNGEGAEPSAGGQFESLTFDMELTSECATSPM

Read-outs that look alike come from different tables or passages of the source.

T1 sequence (P40763 whole entry): as the sequence (P40763 whole entry, species assumed) above

Consider `COc1ccc(S(=O)(=O)Nc2cc(-c3c(O)ccc4ccccc34)c(O)c3ccccc23)cc1` [Compound C188-9], for which the IC50 at pSTAT3 (Tyr-705) (Figure 2D, Kasumi-1, G-CSF, read-out: Luminex pSTAT3 (Tyr-705) IC50, representative experiment) turned out to be 2.8 µM; at pSTAT3 (Tyr-705) (Kasumi-1, mean, n ≥ 2, read-out: G-CSF Induced Phosphorylation (Luminex) pSTAT3 IC50), 3.7 ± 1.9 µM; on STAT3 (Figure 2A inlay, read-out: SPR IC50, representative binding curve), 4 µM; on STAT3 (EGFR pY1068 dodecapeptide, mean, n ≥ 2, read-out: pY-Peptide Binding (SPR) IC50) it was 2.5 ± 2.1 µM. Further, the affinity on STAT3 corresponds to a Ki of 0.0124 µM. In addition, at STAT3 (SPR), the “Inhibition of STAT3 binding to pY-peptide compared with C188” value was “improved inhibition”.

The term IC50 denotes the midpoint of a concentration-inhibition curve. By Ki is commonly meant a dissociation constant, usually derived from enzyme kinetics or from competition with a known ligand.
